This is an account of results in publication PMC11666850, “Development and evaluation of deuterated [^18F]JHU94620 isotopologues for the non-invasive assessment of the cannabinoid type 2 receptor in brain” (EJNMMI Radiopharmacy and Chemistry, 2024).

Where two headings read alike, the source gives them in different places.

The target of data set [1] is CB2R. The conditions noted are these: cited from earlier work.
Data set [2] deals with CB1R. The conditions noted are these: cited from earlier work.
The target in data set [3] is T1, human CB2R (hCB2R) (Homo sapiens, UniProt P34972).
T1 construct: expressed in transfected cells; host or cells: CHO(hCB2R) cells, obtained from Paul L. Prather, University of Arkansas for Medical Sciences
The data set is described as follows: Homologous competition binding, CHO(hCB2R) cell membranes. The method, then: For binding studies crude homogenates of CHO(hCB2R) cells (obtained from Paul L. Prather, Department of Pharmacology and Toxicology, College of Medicine, University of Arkansas for Medical Sciences, USA) were incubated with the reference compound (self-blocking) or the CB2R-specific partial agonist GW405833 (Tocris Bioscience, Bristol, UK) with indicated concentrations at room temperature for 90 min. The total volume of 1 mL of each sample consisted of 600 µL incubation buffer (50 mM Tris HCl pH7.4, 5 mM MgCl2, 1 mM EDTA and 1% Bovine Serum Albumin), 200 µL cell membrane homogenates, 100 µL competitor or binding buffer (total binding) and 100 µl of binding buffer with [^18F]JHU94620-d8 (about 100 kBq per vial, corresponding to 0.8 to 1.6 nM). Incubation was terminated by rapid filtration through a GF-B glass fibre filter, pre-treated with 0.5% PVP with 0.1% Tween 20 solution, using a 48-well cell harvester, washed six times with buffer and filter bound activity was subsequently measured in a γ-counter (1480 WIZARD, Perkin Elmer, Turku, Finland).
(§1) The KD values were calculated with GraphPad Prism according to the modified Cheng-Prusoff method for homologous competitive binding studies, where the KD = Ki = IC50—[radioligand] and the Bmax = specific binding / [radioligand] / ((KD + [radioligand])) (Motulsky and Neubig [2000]), assuming a total protein content of 8.2% (1.3 10^–4 µg protein per voxel) in the spleen (Zaia et al. [2000]) or by determining the protein concentration of the cell membrane lysates using a BCA assay (Thermo Scientific, Braunschweig, Germany). The fractional occupancy defined as occupied binding sites per total binding sites is used to describe the binding fraction specifically bound to CB2R compared to unspecific binding, where [L] is the concentration of the ligand at the start of incubation.

In data set [4] the target is T2, CB2R (Rattus norvegicus, UniProt Q9QZN9).
T2 construct: from tissue; host or cells: rat spleen: cryosections in vitro, and spleen of living Wistar rats in PET
T2 sequence (Q9QZN9 1-360): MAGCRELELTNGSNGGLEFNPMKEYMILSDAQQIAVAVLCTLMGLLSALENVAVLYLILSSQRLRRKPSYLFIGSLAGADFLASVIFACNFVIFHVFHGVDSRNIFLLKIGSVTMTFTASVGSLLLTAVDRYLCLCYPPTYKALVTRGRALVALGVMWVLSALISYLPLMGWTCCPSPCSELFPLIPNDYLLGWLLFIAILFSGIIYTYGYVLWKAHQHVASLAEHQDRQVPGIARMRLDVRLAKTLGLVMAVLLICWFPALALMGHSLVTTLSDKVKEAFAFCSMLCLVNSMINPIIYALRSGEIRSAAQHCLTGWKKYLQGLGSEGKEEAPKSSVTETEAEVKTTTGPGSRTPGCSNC
The data set is described as follows: Quantitative autoradiography, rat spleen cryosections. Format: binding. The conditions noted are these: 100 nM CB2R PAM, rat spleen. The method, then: For quantitative autoradiography in different species, 10 µm cryosections from mouse, rat and piglet spleen were thawed, dried, and pre-incubated with incubation buffer for 10 min, dried under an airstream. Subsequently, the incubation buffer containing [^18F]JHU94620-d8 (59–137 GBq µmol^−1, 1.7–3.6 nM) was added alone or together with indicated concentrations of the reference compound. Additionally, to assess the non-specific binding of [^18F]JHU94620-d8 to cryosections GW405833 was added instead of the reference compound. After 90 min, cryosections were washed two times for 2 min with ice-cold 50 mM Tris HCl, pH7.4 and 10 s in ddH2O and subsequently dried under an airstream. For the calculation of the radioactivity concentration, 5 µl of five serial 1:2 dilutions of the incubation buffer with [^18F]JHU94620-d8 were air-dried on a microscopic slide. For binding studies in rat spleen cryosections by autoradiography with HLM-derived radiometabolites of [^18F]JHU94620-d8 obtained from the radiometabolite assay, the samples were added to the incubation buffer to a final activity concentration of 0.2 MBq mL^−1 and protocol was followed as described above. Subsequently, the slides were exposed to a phosphor imager plate. After scanning at high sensitivity and a 12.5 µm resolution with a CR35 Bio image plate scanner (Raytest Isotopenmessgeräte GmbH, Straubenhardt, Germany). The analyses of the autoradiographic images were performed with the AIDA 5.1 software (Elysia-Raytest, Angleur, Belgium) resulting in a resolution of 12.617 pixel × 12.616 pixel per µm^2 (1 voxel = 1592 µm^3 ≙ 1.59 10^–3 µg wet tissue) and inhibition curves were created with GraphPad Prism 9.5.1 (GraphPad Inc., La Jolla, CA).
as §1

Data set [5] has as its target T2, CB2R. Format: in vivo. The following applies: Wistar rats, i.v. pre-treatment 5 min prior tracer, between 2.5 and 20 min p.i., 1-way ANOVA p < 0.05. The method, then: The dynamic biodistribution of the radiotracer in the lower body of rats was assessed by small animal PET (Nanoscan, Mediso, Hungary) over 60 min with a subsequently T1-weighted MR. Anaesthetized (2% isoflurane, carrier gas mixture of 40% air and 60% O2) male Wistar rats (body weight: 205–308 g, age: 8–10 weeks, no gender-specific differences were taken into account) were kept during imaging on a heated animal bed to sustain body temperature and were pretreated with vehicle (DMSO:Kolliphore EL:0.9% saline, 1:2:7), JHU94620-d8 (1.5 mg kg^−1 bodyweight) or with GW405833 (5 mg kg^−1 bodyweight) 5 min prior tracer application ([^18F]JHU94620-d8: 7.7–28.2 MBq, 0.4 to 3.2 nmol kg^−1 bodyweight), whereby all injections were administered intravenously. For the evaluation of the hCB2R-specific binding of the radiotracer in the brain, female Wistar rats (n = 6, 253–269 g, age: 8 month) were used carrying stereotactically injected constructs of AAV2/7-CaMKII0.4-intron-hCB2R(D80N) in the right striatum and AAV2/7-CaMKII0.4-intron-3flag-eGFP in the control/contralateral striatum (Vandeputte et al. [2011]). 21–26 MBq corresponding to 0.2 to 2.0 nmol kg^−1 bodyweight radiotracer were injected, whereas in displacement studies 5 mg kg^−1 bodyweight GW405833 was administered 20 min after the radiotracer (each n = 3). The PET scans were performed six months after the stereotactic injections of the AAV2/7-constructs.
The acquisitions were performed in normal mode and a coincidence mode 1–5. For subsequent dynamic reconstructions list mode data were sorted into sinograms (12 × 10 s, 6 × 30 s, 5 × 60 s and 10 × 300 s). The frames were reconstructed by Ordered Subset Expectation Maximization applied to 3D (OSEM3D) sinograms corrected for decay and attenuation (4 iterations, 6 subsets and a voxel size of 0.4 mm^3) with the Nucline software v2.01 (Mediso, Budapest, Hungary). Analyses of reconstructed studies were performed with PMOD software (v4.205, PMOD Technologies LLC, Fällanden, Switzerland) and results are expressed in standardized uptake values (SUVs) or normalized to a reference region (SUVr).

Data set [6] addresses hCB2R(D80N) (Homo sapiens, UniProt P34972, D80N). The data set is described as follows: Homologous displacement autoradiography, brain cryosections of rats with hCB2R(D80N) overexpression. The conditions noted are these: hCB2R(D80N) region, 10 µm rat brain cryosections, homologous displacement, n = 3; read-out: KD. Type of data set: binding.
Data set [7] has as its target T2, CB2R. Also noted: method as in Govaerts et al. [2004]. The conditions noted are these: rat spleen; ref Govaerts et al. [2004]; cited from earlier work.
Data set [8] deals with T3, CB2R (Mus musculus, UniProt P47936).
T3 construct: from tissue; host or cells: mouse spleen cryosections
Also noted: method as in Govaerts et al. [2004]. The following applies: mouse spleen; ref Govaerts et al. [2004]; cited from earlier work.

The target of data set [9] is hCB1R. Also noted: method as in Moldovan et al. [2016]. The conditions noted are these: ref Moldovan et al. [2016]; cited from earlier work.
For data set [10] the following is noted: pH 7.4; cited from earlier work.
The conditions of data set [11]: cited from earlier work.
The nature of data set [12]: Ex vivo radiometabolite analysis in CD-1 mice. The following applies: CD-1, mouse, in vivo, 30 min. The method, then: Female adult CD-1 mice (25–42 g body weight) were used for radiometabolite analysis of [^18F]JHU94620-d4 (n = 2, 33 and 34 MBq) and [^18F]JHU94620-d8 (n = 3, 26–33 MBq) at 30 min after intravenous tail vein injection of the radiotracer to allow for the comparison of radiometabolite analysis of [^18F]JHU94620 (Moldovan et al. [2016]). The mice were immobilized by short isoflurane narcosis for the injection of the radiotracer in a restrainer and awakened mice were kept in an isolated cage until euthanisation by cervical dislocation under isoflurane narcosis. Male Wistar rats (n = 12, 613–794 g) were used for radiometabolite analysis of [^18F]JHU94620-d8 at different time points (5, 15, 30 and 60 min p.i.) after intravenous tail vein injection of the radiotracer (37–74 MBq) for the correction of the input function in pharmacokinetic analysis. Rats were kept under isoflurane narcosis (gas mixture: 2.5% isoflurane and O2) on a warmed plate until euthanization by decapitation of deep narcotized animals. Plasma samples were obtained by centrifugation with 5500 g of blood samples for 2 min at 4 °C. Resected tissues brain and spleen were kept on ice and minced for 3 × 20 s with adding 0.5 to 1 mL of 0.9% NaCl using a Precellys lysing kit and Minilys homogenizer (Bertin Technologies SAS, Montigny-le-Bretonneux, France).
The samples were further processed for subsequent radio-chromatographic analyses. Two consecutive extractions were performed in duplicates for plasma and brain determinations. Plasma, brain and spleen samples were added to the four time the volume of an ice-cold MeOH/H2O mixture (9:1, v/v). The samples were vortexed for 3 min, incubated on ice for 5 min and centrifuged at 8,600 g for 5 min. Supernatants were collected and the precipitates were re-dissolved in 100 µL of extraction solvent and the extraction procedure was repeated. The activities of supernatants and precipitates were measured in a γ-counter (1480 WIZARD, Perkin Elmer), and the extraction efficiencies were calculated as the ratio of radioactivity in the supernatant to the radioactivity in the original sample (supernatant + precipitate). The supernatants from both extractions were combined, concentrated at 70 °C under argon stream up to a remaining volume of 100 µL, and subsequently analysed by analytical radio-HPLC (method A or B).

Data set [13] deals with hCB2R. Also on record: method as in Moldovan et al. [2016]. The following applies: ref Moldovan et al. [2016]; cited from earlier work.
Setting [14] is: ref McPartland et al. [2007], Kosar et al. [2024].
The mark [15] stands for this setting: ref Caillé et al. [2017], Auvity et al. [2024].

T1 sequence (P34972 whole entry): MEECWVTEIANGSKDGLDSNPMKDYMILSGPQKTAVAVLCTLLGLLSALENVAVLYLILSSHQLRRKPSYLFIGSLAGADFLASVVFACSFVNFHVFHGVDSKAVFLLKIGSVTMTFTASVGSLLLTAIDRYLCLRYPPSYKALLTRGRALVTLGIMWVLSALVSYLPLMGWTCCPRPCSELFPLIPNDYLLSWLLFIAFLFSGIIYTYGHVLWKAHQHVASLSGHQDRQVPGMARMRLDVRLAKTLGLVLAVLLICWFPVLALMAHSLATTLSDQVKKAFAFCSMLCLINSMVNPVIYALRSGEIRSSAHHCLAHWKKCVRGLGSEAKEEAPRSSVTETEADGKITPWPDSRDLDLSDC
hCB2R(D80N), sequence (P34972 whole entry D80N): as the sequence (P34972 whole entry) above, with D80N counted along it
T3 sequence (P47936 whole entry): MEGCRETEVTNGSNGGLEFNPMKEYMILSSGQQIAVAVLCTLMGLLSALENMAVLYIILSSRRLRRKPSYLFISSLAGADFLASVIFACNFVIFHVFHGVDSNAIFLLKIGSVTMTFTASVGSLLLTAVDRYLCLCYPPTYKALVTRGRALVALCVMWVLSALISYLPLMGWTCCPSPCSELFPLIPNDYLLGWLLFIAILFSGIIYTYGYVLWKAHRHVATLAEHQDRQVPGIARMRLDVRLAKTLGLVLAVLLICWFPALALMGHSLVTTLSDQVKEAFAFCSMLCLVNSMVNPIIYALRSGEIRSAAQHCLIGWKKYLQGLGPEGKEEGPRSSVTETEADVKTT

Regarding `CCCCC/C=C\C/C=C\C/C=C\C/C=C\CCCC(=O)OC(CO)CO` [2-AG, 2-arachydonilglycerol], the Ki in data set [1] (setting [14]) is 1.19 µM.
`CCCCC/C=C\C/C=C\C/C=C\C/C=C\CCCC(=O)NCCO` [AEA, anandamide]: the Ki was 0.44 µM in data set [1] (setting [14]) and 0.24 µM in data set [2] (setting [14]).
On to `Cc1c(Br)cn(Cc2ccc(F)cc2)c(=O)c1NC(=O)C1CCCCCC1` [CB2R PAM, reference compound], for which the “effect of co-incubation on the binding of [^18F]JHU94620-d8” value in data set [3] (100 nM CB2R PAM, CHO(hCB2R) cell membranes) was “did not increase the binding”; in [4], “did not increase the binding”. The “competition with [^18F]JHU94620-d8 binding” value in [3] (CB2R PAM binding assay, Figure S9 as cited) is “weak competitive binding”.
Take `COc1ccc2c(c1)c(CCN1CCOCC1)c(C)n2C(=O)c1cccc(Cl)c1Cl` [GW405833, reference compound]: the “blocking of [^18F]JHU94620-d8 uptake into the spleen” value in data set [5] was “significantly blocked”.
Consider `[2H]C([2H])(F)C([2H])([2H])C([2H])([2H])C([2H])([2H])n1c(C)c(C)s/c1=N\C(=O)C1C(C)(C)C1(C)C` [JHU94620-d8, (Z)-N-(3-(4-Fluorobutyl-1,1,2,2,3,3,4,4-d8)-4,5-dimethylthiazol-2(3H)-ylidene)-2,2,3,3-tetramethylcyclopropane-1-carboxamide], for which, in [6], the Kd amounted to 0.0413 µM. Moreover, the “blocking of [^18F]JHU94620-d8 uptake into the spleen” value in [5] was “significantly blocked”.
As to `CCCCCCC(C)(C)c1ccc([C@@H]2C[C@H](O)CC[C@H]2CCCO)c(O)c1` [[^3H]CP55940], the Bmax is reported as 0.71 ± 0.02 pmol mg^−1 protein in data set [7] and 0.31 ± 0.03 pmol mg^−1 protein in data set [8].
On to `Cc1s/c(=N\C(=O)C2C(C)(C)C2(C)C)n(CCOCC[18F])c1C` [[^18F]FC0324, (Z)-N-(3-(2-(2-[^18F]Fluoroethoxy)ethyl)-4,5-dimethylthiazol-2(3H)-ylidene)-2,2,3,3-tetramethylcyclopropane-1-carboxamide], for which the results for the Ki in data set [1] (setting [15]) and in data set [2] (setting [15]) were 0.0001 µM and 0.03 µM, respectively.
As to `Cc1s/c(=N\C(=O)C2C(C)(C)C2(C)C)n(CCCC[18F])c1C` [[^18F]JHU94620], the values for the Ki in data set [9] and in data set [13] were 0.38 µM and 0.0004 µM, respectively. Further, in [10], the LogD7.4 is recorded as 3.2. Besides, the “parent fraction in brain” value in [11] (CD-1 mouse brain, 30 min p.i., ref Moldovan et al. [2016]) was 0.36. Also, the “parent fraction in plasma” value in [11] (mouse, in vivo) is listed as 0.07. Further, the “percentage printed at the radiotracer peak of the representative radio-HPLC chromatogram (Mice)” value in data set [12] is given as 37%.
With Δ^9-trans-tetrahydrocannabinol [THC], the figures for the inhibitory constant (Ki) in data set [1] (setting [14]) and in [2] (setting [14]) were 0.036 µM and 0.025 µM, respectively.
